Legend:
Type in all cases: in vivo, rat
[1] = Experiment 6: BMX-001 plasma and brain concentration measurement (LC/MS/MS)
Method: Young male Wistar rats (n=4) were subjected to 90 min of MCAO and 30 μg/kg of BMX-001 intra-carotid infusion following reperfusion. Blood and brain samples were harvested at 30 min after BMX-001 infusion, stored in −80° C. freezer, and measured using Liquid chromatography-tandem-mass spectroscopy (LC/MS/MS) analysis. Brain tissue was homogenized in water (1 g in 2 mL water). Then, […] or […], two Zr-silica beads (2.5 mm), […] 1% HFBA (heptafluorobutyric acid) in 30% acetonitrile/water+BMX-001-d8 (int. std.,50 nM), and […] of chloroform/isopropanol (4/1, v/v) was added to polypropylene tube and vigorously agitated in FastPrep (Thermo Savant) at speed 6 for 45 s, followed by centrifugation at 16,000 rcf for 5 min at room temperature. The […] aliquot of organic (lower) layer was transferred to polypropylene tube and evaporated to dryness by gentle stream of nitrogen. The dry residue was reconstituted into […] of mobile phase A, and […] injected into LC/MS/MS system. The LC/MS/MS analysis was performed on Agilent 1200 HPLC-AB/SCIEX 5500 QTrap MS/MS instrument. LC column: Phenomenex Kinetex 4×3 mm, C18 guard cartridge at 35° C.; mobile phase A: 0.05% HFBA, 10% acetonitrile, water; mobile phase B: 0.05% HFBA in acetonitrile; elution gradient: 0-1 min 0-70% B, 1-2 min 70% B, 2-2.1 min 70-100% B, 2.1-2.6 min 100% B, 2.6-2.7 min 100-0% B; run time: 4 min. MS/MS transitions: BMX-001 (3×HFBA) at m/z 857.3/599.7. Calibration samples in 2.4 (LOQ)—300 nM brain tissue or 0.47 (LOQ)—30 nM plasma concentration range were prepared by adding known amounts of BMX-001 into blank brain homogenate or plasma, and analyzed alongside study samples as a single analytical batch.

[2] = system: young male Wistar rats subjected to 90 min of MCAO (ischemic stroke); test: Experiment 1: acute stroke outcome after 90 min MCAO, intracarotid BMX-001 then subcutaneous for 7 days
Method: (§1) The rats were fasted overnight for glucose control. On the surgery day, they were anesthetized with 5% isoflurane in 30% oxygen balanced with nitrogen. The trachea was orally intubated, and both lungs were mechanically ventilated to maintain normocapnia. Isoflurane was reduced to 1.5% during the surgical procedure. A 22-gauge needle thermistor was percutaneously inserted beneath the temporalis muscle adjacent to the skull. The pericranial temperature was maintained at 37.0° C.±0.2° C. by a surface heat lamp. The tail artery was cannulated with PE 50 tubing (BD Intramedic™ Polyethylene Tubing, Sparks, MD, USA), and arterial blood pressure was continuously monitored. 50 IU of heparin was given via arterial line to prevent intra-arterial thrombosis. Arterial blood samples were collected pre, during, and after ischemia for blood gas, glucose, and hematocrit measurements.
(§2) Ischemic stroke was induced by transiently occluding the middle cerebral artery (MCAO) as previously reported.^23,24 Briefly, a midline cervical incision was made and the right common carotid artery […] was identified. The external and internal carotid arteries were dissected. […] The internal carotid artery (ICA) was dissected distally until the origin of the pterygopalatine artery was visualized. After surgical preparation, a 10 min interval was allowed for physiologic stabilization. […] The common carotid artery was re-opened, and a timer was started as the onset of cerebral ischemia.
(§3) After 90 min of MCAO, the filament was removed and a PE-10 tube (BD Intramedic™ Polyethylene Tubing, Sparks, MD, USA) was inserted into the ICA beyond the origin of the pterygopalatine artery. The vehicle or BMX-001 (30-50 μg/kg) solution (1 μl/g for both solutions, 250 μl for the 250 g rat) was slowly infused for 5 minutes via syringe pump. At the completion of intra-carotid infusion, the PE tube was removed and the ECA stump was permanently ligated. The tail artery catheter was removed and both the neck incision and tail incision were infiltrated with bupivacaine and closed with suture. Isoflurane was discontinued. Rats were disconnected from the ventilator when they attained spontaneous respiration and kept in a recovery cage. The tracheas were extubated after recovery of the righting reflex. They were in an O2 enriched environment (30% O2) for 1 h and then returned to the home cage.
(§4) Post-stroke neurologic deficits were assessed at day 7 and 28 using a standardized neurological scoring system.^27,28 General status, simple motor deficit, complex motor deficit, and sensory deficit were evaluated, including the ability of walking on a beam and climbing on the vertical screen. The total score each animal received was the sum of all four individual scores (0-48, 0=normal and 48=the worst score).
Upon the completion of functional tests, the animals were weighed, anesthetized with isoflurane, and decapitated. The brains were harvested, frozen at −20° C. in 2-methylbutane on dry ice, and stored in a −80° C. freezer. Serial quadruplicate 20-μm-thick coronal sections were cut using a Leica cryostat and mounted on the slides at 720-μm interval over the rostral-caudal extent of the brain. The sections were dried on a slide heater at 36° C., and stained with hematoxylin and eosin. A section from each […] interval was digitized with a video camera controlled by an image analyzer (MCID, the MicroComputer Imaging Device, Imaging Research Inc, St. Catharines, Ontario, Canada). […] With the observer blinded to the experimental condition, the following regions of interest (ROI) were outlined individually using an operator-controlled cursor, including non-infarcted ipsilateral cerebral cortex, non-infarcted ipsilateral subcortex, contralateral cerebral cortex, and contralateral subcortex. The area in each ROI (mm^2) was determined by automated counting of calibrated pixels and the volume (mm^3) was computed by the known interval between sections over the rostral-caudal extent of brain. […]

[3] = system: young female Wistar rats subjected to 90 min of MCAO (ischemic stroke); test: Experiment 2: long-term stroke outcome in young female rats; settings: for Neurologic score: median±IQR, p=0.04 vs vehicle
Method: as §1, §2, §3, §4
Upon the completion of functional tests, the animals were weighed, anesthetized with isoflurane, and decapitated. The brains were harvested, frozen at −20° C. in 2-methylbutane on dry ice, and stored in a −80° C. freezer. Serial quadruplicate 20-μm-thick coronal sections were cut using a Leica cryostat and mounted on the slides at 720-μm interval over the rostral-caudal extent of the brain. The sections were dried on a slide heater at 36° C., and stained with hematoxylin and eosin. […] The area in each ROI (mm^2) was determined by automated counting of calibrated pixels and the volume (mm^3) was computed by the known interval between sections over the rostral-caudal extent of brain. […]

[4] = 30 μg/kg intracarotid after 90 min MCAO, 30 min after infusion, n=4

**Q.** With CCCCOCC[n+]1ccccc1C1=C2C=CC3=[N+]2[Mn]24[n]5c1ccc5C(c1cccc[n+]1CCOCCCC)=C1C=CC(=[N+]12)C(c1cccc[n+]1CCOCCCC)=c1ccc([n]14)=C3c1cccc[n+]1CCOCCCC [BMX-001, MnTnBuOE-2-PyP^5+] as the compound, how does the “BMX-001 content in contralateral brain hemisphere” value [1, 4] read?
**A.** The value was 0.5 ± 0.3 nM.

**Q.** What about the “BMX-001 content in ipsilateral brain hemisphere” value [1, 4] of the same compound?
**A.** The value was 7.4 ± 8.6 nM.

**Q.** What about the “BMX-001 content in plasma” value [1, 4] of the same compound?
**A.** The value was 11.3 ± 1.2 nM.

**Q.** And the “BMX-001 concentration at the site of brain injury relative to the contralateral hemisphere” value ([1]; direct intracarotid infusion)?
**A.** Its value is 15 fold.

**Q.** What about the “Perioperative blood pressure (FIG. 1, Panel A), in words” value ([2]; 5 min vs 45 min post-treatment) of the same compound?
**A.** Its value is “lower blood pressure”.

**Q.** What about the Perioperative blood pressure ([2]; 10 minutes post-ischemia, after 30 μg/kg intracarotid BMX-001, p=0.04 vs vehicle) of the same compound?
**A.** The Perioperative blood pressure was 75±4 mmHg.

**Q.** What about the Body weight ([2]; 24 hours post-stroke) of the same compound?
**A.** The Body weight was 252±9 grams.

**Q.** What about the “Post-stroke body weight recovery (FIG. 1, Panel B), in words” value ([2]; body weight at 7 Days vs 24 hours, p=0.02) of the same compound?
**A.** The value was “promoted post-stroke body weight recovery”.

**Q.** What about the “Infarct volume (FIG. 1, Panel D), in words” value ([2]; day 7 post-stroke) of the same compound?
**A.** The value was “significantly improved”.

**Q.** What about the “Neurologic scores (FIG. 1, Panel C), in words” value ([2]; day 7 post-stroke) of the same compound?
**A.** Its value is “significantly improved”.

**Q.** And the Body weight ([2]; day 7 post-stroke, p=0.02 vs 24 hours)?
**A.** The Body weight was 279±9 grams.

**Q.** What about the Subcortex infarct ([2]; day 7 post-stroke, p=0.02 vs vehicle) of the same compound?
**A.** The Subcortex infarct was 38.964 ±8.892 mm^3.

**Q.** And the Total infarct ([2]; day 7 post-stroke, p=0.04 vs vehicle)?
**A.** The Total infarct was 89.097±48.424 mm^3.

**Q.** What about the Cortex infarct ([2]; day 7 post-stroke, p=0.07 vs vehicle) of the same compound?
**A.** Its Cortex infarct is 49.864±42.899 mm^3.

**Q.** And the Neurologic score ([2]; post-stroke day 7, score 0-48 (0=normal), median±IQR, p<0.01 vs vehicle)?
**A.** The Neurologic score was 4±3.5.

**Q.** What about the Neurologic score ([3]; 7 days post-stroke) of the same compound?
**A.** The Neurologic score was 11±7.

**Q.** And the Neurologic score ([3]; 28 days post-stroke)?
**A.** The Neurologic score was 7±6.

**Q.** And the Infarct volume ([3]; 28 days post-stroke, p=0.38 vs vehicle)?
**A.** Its Infarct volume is 157.378 ±63.699 mm^3.

**Q.** What about the “Neurologic score (FIG. 2, Panel A), in words” value ([3]; day 7 and day 28 compared to the vehicle group) of the same compound?
**A.** The value was “better neurologic score”.

**Q.** What about the “Infarct volumes (FIG. 2, Panel B), in words” value ([3]; day 28, no intragroup difference was detected) of the same compound?
**A.** The value was “smaller”.

Source: patent publication US20240342190A1, “METHODS FOR REDUCING ISCHEMIA-REPERFUSION INJURIES” (BioMimetix JV, LLC, priority 2023, published 2024)
